# In patent publication US20140357487A1, “PLANTS HAVING INCREASED TOLERANCE TO HERBICIDES” (BASF SE, priority 2011, published 2014):
# What was measured:
# [1] = biological target: T1, Arabidopsis HPPD variant M335H, P336A, E363Q (Arabidopsis thaliana, UniProt P93836, E363Q/M335H/P336A); assay: HPPD activity assay, Arabidopsis HPPD mutant M335H, P336A, E363Q; type: biochemical; details: normalized on Arabidopsis wild-type HPPD
# T1 construct: PCR-based site directed mutagenesis of pEXP5-NT/TOPO®-AtHPPD is done; His6 (N); made in house; host or cells: E. coli BL21 (DE3)
# T1 sequence (P93836 whole entry M335H/P336A/E363Q): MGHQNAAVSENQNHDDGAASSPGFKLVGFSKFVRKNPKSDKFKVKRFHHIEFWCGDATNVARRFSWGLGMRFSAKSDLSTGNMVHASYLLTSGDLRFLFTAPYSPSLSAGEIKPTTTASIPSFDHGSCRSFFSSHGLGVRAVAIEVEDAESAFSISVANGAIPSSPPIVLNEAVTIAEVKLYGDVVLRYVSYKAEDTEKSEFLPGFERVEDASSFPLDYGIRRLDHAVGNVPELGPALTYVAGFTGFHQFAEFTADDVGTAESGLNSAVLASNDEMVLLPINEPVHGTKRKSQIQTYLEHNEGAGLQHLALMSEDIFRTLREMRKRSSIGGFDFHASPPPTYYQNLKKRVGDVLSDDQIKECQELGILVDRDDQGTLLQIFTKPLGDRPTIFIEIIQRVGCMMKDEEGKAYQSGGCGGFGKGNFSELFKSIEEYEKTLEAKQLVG
# Experimental: HPPD produces homogentisic acid and CO2 from 4-hydroxyphenylpyruvate (4-HPP) and O2. The activity assay for HPPD is based on the analysis of homogentisic acid by reversed phase HPLC.
# The assay mixture can contain 150 mM potassium phosphate buffer pH 7.0, 50 mM L-ascorbic acid, 1 μM FeSO4 and 7 μg of purified enzyme in a total volume of 1 ml.
# Inhibitors are dissolved in DMSO (dimethylsulfoxide) to a concentration of 20 mM or 0.5 mM, respectively. From this stock solution serial five-fold dilutions are prepared in DMSO, which are used in the assay. The respective inhibitor solution accounts for 1% of the assay volume. […] After a preincubation of 30 min the reaction is started by adding 4-HPP to a final concentration of 0.1 mM. The reaction is allowed to proceed for 120 min at room temperature. The reaction is stopped by addition of 100 μl of 4.5 M phosphoric acid.
# Activities are normalized by setting the uninhibited enzyme activity to 100%. IC50 values are calculated using non-linear regression.
# The assay mixture can contain 150 mM potassium phosphate buffer pH 7.0, 50 mM L-ascorbic acid, 100 μM Catalase (Sigma-Aldrich), 1 μM FeSO4 and 0.2 units of purified HPPD enzyme in a total volume of 505 μl. 1 unit is defined as the amount of enzyme that is required to produce 1 nmol of HGA per minute at 20° C.
# Inhibitors are dissolved in DMSO (dimethylsulfoxide) to a concentration of 0.5 mM. […] IC50 values are calculated using non-linear regression. […]
# Purified, mutant HPPD enzymes are obtained by the methods described above. […] Apparent michaelis constants (Km) and maximal reaction velocities (Vmax) are calculated by non-linear regression with the software GraphPad Prism 5 (GraphPad Software, La Jolla, USA) using a substrate inhibition model.
# Field performance of the optimized HPPD enzyme, which is used as a herbicide tolerance trait may depend not only on its lack of sensitivity towards HPPD inhibiting herbicides but also on its activity. To assess the potential performance of a herbicide tolerance trait a tolerance index (TI) is calculated using the following formula: […]
# [2] = system: transgenic soybean plants, Arabidopsis P336A E363Q I393L L385V, event SDS-9999; assay: Greenhouse testing of transgenic soybean plants, Arabidopsis P336A E363Q I393L L385V; type: in vivo, Glycine max; details: soybean SDS-9999, 5 days after herbicide treatment, average of 8 T1
# Excerpt: (§1) Various methods for the production of stably transformed plants are well known in the art. Coumarone-derivative herbicide tolerant soybean (Glycine max) or corn (Zea mays) plants can be produced by a method described by Olhoft et al. (US patent 2009/0049567). Briefly, HPPD or HST encoding polynucleotides are cloned into a binary vector using standard cloning techniques as described by Sambrook et al. (Molecular cloning (2001) Cold Spring Harbor Laboratory Press). The final vector construct contains an HPPD or HST encoding sequence flanked by a promoter sequence (e.g. the ubiquitin promoter (PcUbi) sequence) and a terminator sequence (e.g. the nopaline synthase terminator (NOS) sequence) and a resistance marker gene cassette (e.g. AHAS) (FIG. 2). Optionally, the HPPD or HST gene can provide the means of selection. Agrobacterium-mediated transformation is used to introduce the DNA into soybean's axillary meristem cells at the primary node of seedling explants. After inoculation and co-cultivation with Agrobacteria, the explants are transferred to shoot induction medium without selection for one week. The explants are subsequently transferred to shoot induction medium with 1-3 μM imazapyr (Arsenal) for 3 weeks to select for transformed cells. Explants with healthy callus/shoot pads at the primary node are then transferred to shoot elongation medium containing 1-3 μM imazapyr until a shoot elongates or the explant dies. After regeneration, transformants are transplanted to soil in small pots, placed in growth chambers (16 hr day/8 hr night; 25° C. day/23° C. night; 65% relative humidity; 130-150 mE m−2 s−1) and subsequently tested for the presence of the T-DNA via Taqman analysis. After a few weeks, healthy, transgenic positive, single copy events are transplanted to larger pots and allowed to grow in the growth chamber. Transformation of corn plants is done by a method described by McElver and Singh (WO 2008/124495). Plant transformation vector constructs containing HPPD or HST sequences are introduced into maize immature embryos via Agrobacterium-mediated transformation. Transformed cells are selected in selection media supplemented with 0.5-1.5 μM imazethapyr for 3-4 weeks. Transgenic plantlets are regenerated on plant regeneration media and rooted afterwards. Transgenic plantlets are subjected to TaqMan analysis for the presence of the transgene before being transplanted to potting mixture and grown to maturity in greenhouse. Arabidopsis thaliana is transformed with HPPD or HST sequences by floral dip method as described by McElver and Singh (WO 2008/124495). Transgenic Arabidopsis plants are subjected to Tag Man analysis for analysis of the number of integration loci. Transformation of Oryza sativa (rice) are done by protoplast transformation as described by Peng et al. (U.S. Pat. No. 6,653,529)
# (§2) Transgenic plants expressing heterologous HPPD or HST enzymes are tested for tolerance against coumarone-derivative herbicides in greenhouse experiments.
# (§3) For post emergence treatment, the test plants are first grown to a height of 3 to 15 cm, depending on the plant habit, and only then treated with the herbicides. For this purpose, the test plants are either sown directly and grown in the same containers, or they are first grown separately and transplanted into the test containers a few days prior to treatment.
# (§4) Depending on the species, the plants are kept at 10-25° C. or 20-35° C. The test period extends over 3 weeks. During this time, the plants are tended and their response to the individual treatments is evaluated. […] Tolerance to coumarone-derivative herbicides can also be assessed in Arabidopsis. In this case transgenic Arabidopsis thaliana plants are assayed for improved tolerance to coumarone-derivative herbicides in 48-well plates. Seeds are surface sterilized by stirring for 5 min in ethanol+water (70+30 by volume), rinsing one time with ethanol+water (70+30 by volume) and two times with a sterile, deionized water. […]
# [3] = system: transgenic soybean plants, Arabidopsis I393L L385V, event SDS-9908; assay: Greenhouse testing of transgenic soybean plants, Arabidopsis I393L L385V; type: in vivo, Glycine max; details: soybean SDS-9908, 5 days after herbicide treatment, average of 8 T1
# Excerpt: as §1, §2, §3, §4
structure (smiles),measurement,setting,value
"CC1=NOC(c2c(Cl)ccc(C3=C(O)c4ncccc4C(C)(C)S3(=O)=O)c2Cl)C1 (centres unmarked) [Inhibitor 1, 7-[2,4-dichloro-3-(3-methyl-4,5-dihydroisoxazol-5-yl)phenyl]-5,5-dimethyl-6,6-dioxo-thiopyrano[4,3-b]pyridin-8-ol]",Normalized tolerance index TI,[1],5.5
"CC1(C)c2cccnc2C(O)=C(c2ccc(Cl)nc2Cl)S1(=O)=O [Inhibitor 2, 7-(2,6-dichloro-3-pyridyl)-5,5-dimethyl-6,6-dioxo-thiopyrano[4,3-b]pyridin-8-ol]","Injury evaluation, scale of 1-100, bleaching phenotype",[2]; 2.5 g/ha,6
same,"Injury evaluation, scale of 1-100, bleaching phenotype",[2]; 10 g/ha,5
same,"Injury evaluation, scale of 1-100, bleaching phenotype",[2]; 40 g/ha,15
same,"Injury evaluation, scale of 1-100, bleaching phenotype",[3]; 2.5 g/ha,3
same,"Injury evaluation, scale of 1-100, bleaching phenotype",[3]; 10 g/ha,3
same,"Injury evaluation, scale of 1-100, bleaching phenotype",[3]; 40 g/ha,5
"COCCOCc1c(Cl)ccc(C2=C(O)c3ncccc3C(C)(C)S2(=O)=O)c1Cl [Inhibitor 3, 7-[2,4-dichloro-3-(2-methoxyethoxymethyl)phenyl]-5,5-dimethyl-6,6-dioxo-thiopyrano[4,3-b]pyridin-8-ol]",Normalized tolerance index TI,[1],0.3
"Cc1c(C(=O)c2cnn(C)c2O)ccc(S(C)(=O)=O)c1C1=NOCC1 [Topramezone, reference compound]","Injury evaluation, scale of 1-100, bleaching phenotype",[2]; 6.25 g/ha,7
same,"Injury evaluation, scale of 1-100, bleaching phenotype",[2]; 25 g/ha,18
same,"Injury evaluation, scale of 1-100, bleaching phenotype",[2]; 100 g/ha,24
same,"Injury evaluation, scale of 1-100, bleaching phenotype",[3]; 6.25 g/ha,2
same,"Injury evaluation, scale of 1-100, bleaching phenotype",[3]; 25 g/ha,7
same,"Injury evaluation, scale of 1-100, bleaching phenotype",[3]; 100 g/ha,14
